Test results as given in paper PMC6152180, “Design, Synthesis and Evaluation of Hesperetin Derivatives as Potential Multifunctional Anti-Alzheimer Agents” (Molecules : A Journal of Synthetic Chemistry and Natural …, 2017).
Read-outs that look alike come from different tables or passages of the source.

Assays:
PC12 cells = assay: Protective effect against H2O2-induced cell death in PC12 neurons (MTT); type: cell-based
Protocol: The neuroprotective activity of compound 4f against oxidative stress-induced cell death in PC12 cells was evaluated. Compound 4f was evaluated at concentrations of 1, 2.5 and 5 µM, and quercetin was used as the reference compound. […] […].
PC12 cells were cultured in DMEM media with 10% fetal calf serum (FCS, Hyclone) containing 100 units/mL penicillin and […] streptomycin under 5% CO2 at 37 °C. To produce oxidative stress, H2O2 was freshly prepared from a 30% stock solution prior to each experiment. PC12 cells were plated in cell culture plates at a density of 10^5 cells per well. In our study, 0.2 mM H2O2 were treated with PC12 cells for 24 h in the injury module, while the compound group cells were pretreated with different concentrations (1, 2.5 and 5 μM) of the compound 4f for 2 h. The control group cells were treated with the same medium without H2O2 or compound 4f. The cell viability of PC12 cells was evaluated using MTT assay. After, PC12 cells were cultured with 5 mg/mL MTT and incubated for 4 h at 37 °C. Then the cells were lysed in dimethyl sulfoxide DMSO ([…]). The absorbance was detected at 570 nm by a microplate reader (Bio-Tek). PC12 cells were cultured without 4f or H2O2 as control group and the results were expressed by percentage of control.

in vitro = details: human
Protocol: Thus, we used the methylthiazolyl tetrazolium (MTT) method [30] to perform a neurocyte (SH-SY5Y) toxicity test in vitro.
The SH-SY5Y cell line was seeded on 96-well plates at a density of 10^4 cells/well. […] Subsequently, 10 μL of 5 mg/mL MTT solution was added to each well and further incubated for 4 h at 37 °C. The solution was carefully removed, and each well was treated with DMSO (200 μL for each well). The optical density of the wells was then read on the microplate reader at 570 nm. All the tested compounds were performed in triplicate.

AChE [1] = target: T1, AChE (Electrophorus electricus, UniProt O42275); assay: biochemical
T1 construct: purchased Sigma-Aldrich C3389-2KU
Protocol: (§1) Acetylcholinesterase (AChE, E.C. 3.1.1.7, obtained from electric eel) was purchased from Sigma-Aldrich (St. Louis, MO, USA, product code: C3389-2KU). Butyrylcholinesterase (BuChE, E.C. 3.1.1.8, obtained from equine serum) was purchased from Aladdin (Shanghai, China, product code: B128570-2KU). […] The compounds were dissolved in a minimum volume of DMSO (1%) and then diluted in 0.1 M KH2PO4/K2HPO4 buffer (pH 8.0) to provide a final concentration range.
(§2) Enzyme solutions were prepared to give 2.0 units/ mL in 2 mL aliquots. The assay medium contained phosphate buffer, pH 8.0 (1 mL), 50 μL of 0.01 M DTNB, 10 μL of enzyme, and 50 μL of 0.01 M substrate (ATC). The substrate was added to the assay medium containing enzyme, buffer, and DTNB with inhibitor after 15 min of incubation time. […] In vitro BuChE assay used the similar method described above [31]. Each concentration was assayed in triplicate.

Aβ (1–42) = Aβ (1–42) (Homo sapiens, UniProt P05067); assay: Inhibition of self-mediated Aβ (1–42) aggregation (thioflavin T fluorescence assay)
Protocol: A thioflavin T based fluorometric assay was performed to investigate the self-mediated Aβ (1–42) aggregation [33]. Aβ (1–42) peptide (Sigma-Aldrich) was dissolved in phosphate buffer (0.01 M, pH 7.40) to obtain a 20 μM solution. Compounds were firstly dissolved in DMSO to obtain a 10 mM solution. Inhibitors and the final concentration of Aβ (1–42) were 20 μM. After incubated in 37 °C for 48 h, thioflavin-T (5 μM in 50 mM glycine-NaOH buffer, pH 8.00) was added. […] Each inhibitor was run in triplicate. The fluorescence intensities were recorded, and the percent inhibition on aggregation was calculated by the following expression: (1 − IFi/IFc) × 100% in which IFi and IFc were the fluorescence intensities obtained for absorbance in the presence and absence of inhibitors, respectively, after subtracting the fluorescence of respective blanks.

AChE [2] = target: T1, AChE; assay: Kinetic characterization of AChE inhibition (Lineweaver-Burk plot); type: biochemical; details: Lineweaver–Burk plots
Protocol: Three different concentrations (2, 4 and 8 nM) of substrate were mixed in the 1 mL 0.1 M KH2PO4/K2HPO4 buffer (pH 8.0), containing 10 μL AChE, 50 μL of DTNB, and 50 μL substrate. […] A parallel control with no inhibitor in the mixture, allowed adjusting activities to be measured at various times.

BuChE = target: T2, BuChE (Equus caballus, UniProt P81908); assay: biochemical; details: BuChE from equine serum; means ± SEM of three experiments; read-out: BuChE Inhibition, (IC50)
T2 construct: purchased Aladdin B128570-2KU; host or cells: equine serum
T2 sequence (P81908 whole entry): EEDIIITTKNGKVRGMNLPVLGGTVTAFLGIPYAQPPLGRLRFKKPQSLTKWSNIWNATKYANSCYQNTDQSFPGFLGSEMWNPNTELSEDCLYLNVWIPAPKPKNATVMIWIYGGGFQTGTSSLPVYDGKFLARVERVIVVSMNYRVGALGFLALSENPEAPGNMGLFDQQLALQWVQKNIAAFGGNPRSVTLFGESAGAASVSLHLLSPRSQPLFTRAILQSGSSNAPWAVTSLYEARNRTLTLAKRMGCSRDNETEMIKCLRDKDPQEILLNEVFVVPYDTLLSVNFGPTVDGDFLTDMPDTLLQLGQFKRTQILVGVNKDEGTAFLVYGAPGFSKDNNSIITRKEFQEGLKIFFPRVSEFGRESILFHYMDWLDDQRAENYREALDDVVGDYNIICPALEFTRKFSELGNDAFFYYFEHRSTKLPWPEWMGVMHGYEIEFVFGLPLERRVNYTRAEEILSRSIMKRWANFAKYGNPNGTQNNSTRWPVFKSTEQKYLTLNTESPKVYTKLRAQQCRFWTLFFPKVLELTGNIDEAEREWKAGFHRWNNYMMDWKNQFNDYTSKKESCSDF
Protocol: as §1, §2

T1 sequence (O42275 24-633): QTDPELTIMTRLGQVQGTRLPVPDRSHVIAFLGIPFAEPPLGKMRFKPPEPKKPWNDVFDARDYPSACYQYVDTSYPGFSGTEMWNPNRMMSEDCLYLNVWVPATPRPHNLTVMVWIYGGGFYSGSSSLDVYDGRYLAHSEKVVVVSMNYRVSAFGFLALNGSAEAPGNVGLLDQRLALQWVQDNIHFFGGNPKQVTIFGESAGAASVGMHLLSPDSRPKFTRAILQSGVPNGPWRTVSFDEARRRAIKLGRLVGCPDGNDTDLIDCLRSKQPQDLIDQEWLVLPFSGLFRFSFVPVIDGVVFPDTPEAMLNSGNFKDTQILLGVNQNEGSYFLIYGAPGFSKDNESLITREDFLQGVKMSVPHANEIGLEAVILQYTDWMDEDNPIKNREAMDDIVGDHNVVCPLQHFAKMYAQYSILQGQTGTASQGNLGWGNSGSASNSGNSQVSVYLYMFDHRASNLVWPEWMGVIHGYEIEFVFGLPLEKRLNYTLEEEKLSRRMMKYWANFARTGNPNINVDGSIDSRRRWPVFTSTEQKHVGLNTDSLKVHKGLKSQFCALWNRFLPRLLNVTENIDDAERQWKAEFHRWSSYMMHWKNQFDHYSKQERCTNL
Aβ (1–42), sequence (P05067 672-713): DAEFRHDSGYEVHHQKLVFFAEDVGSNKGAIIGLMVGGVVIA

Which results are given for `COc1ccc([C@@H]2CC(=O)c3c(O)cc(OCC(=O)NCc4ccc(C(F)(F)F)cc4)cc3O2)cc1O` [Compound 4f, 2-[5-Hydroxy-2-(3-hydroxy-4-methoxyphenyl)-4-oxochroman-7-yloxy]-N-(4-trifluoro-methylbenzyl)acetamide]?
protective capability compared with quercetin (PC12 cells; 5 µM, H2O2 200 µM): slightly better protective capability than quercetin; cytotoxicity toward the PC12 cells (PC12 cells; 1, 2.5 and 5 µM): no cytotoxicity; protection of PC12 neurons against H2O2-induced cell death (PC12 cells; pretreatment at 1, 2.5 and 5 µM, H2O2 200 µM, p-value < 0.01): significantly protected the neurons against cell death; viability at 48 h, 1 µM (in vitro): 100 ± 4.76%; viability at 48 h, 10 µM (in vitro): 95.8 ± 7.31%; viability at 48 h, 50 µM (in vitro): 83.3 ± 5.44%; viability at 48 h, 100 µM (in vitro): 62.3 ± 5.78%; IC50 (AChE [1]; AChE from electric eel, means ± SEM of three experiments, read-out: AchE Inhibition, (IC50)): 9.37 ± 0.87 nM; Selective Index (AChE [1]; Selectivity Index = IC50 (BuChE)/IC50 (AChE)): 305; IC50 (Aβ (1–42)): 8470 ± 440 nM; inhibition at 20 µM (Aβ (1–42); read-out: Aβ (1–42) aggregation inhibition rate): 76.3%; inhibition type against AChE (AChE [2]): mixed-type inhibition; Ki (AChE [2]; superscript b not defined, read-out: Ki b): 4.67 nM; Ki (AChE [2]; superscript c not defined, read-out: Ki c): 4.27 nM; Ki (AChE [2]; superscript d not defined, read-out: Ki d): 3.28 nM; IC50 (BuChE): 2860 ± 45 nM
